Results on one substance are retold here after patent publication US20260248881A1, “PHARMACEUTICAL COMPOSITION COMPRISING FOXM1 INHIBITOR AND IMMUNE CHECKPOINT INHIBITOR FOR PREVENTING OR TREATING CANCER” (National Cancer Center, priority 2022, published 2026).

One data set deals with T1, FOXM1 (Homo sapiens, UniProt Q08050).
T1 construct: FLAG; expressed in transfected cells; host or cells: H1299 and PC9 cells
T1 sequence (Q08050 1-748 isoform Q08050-2): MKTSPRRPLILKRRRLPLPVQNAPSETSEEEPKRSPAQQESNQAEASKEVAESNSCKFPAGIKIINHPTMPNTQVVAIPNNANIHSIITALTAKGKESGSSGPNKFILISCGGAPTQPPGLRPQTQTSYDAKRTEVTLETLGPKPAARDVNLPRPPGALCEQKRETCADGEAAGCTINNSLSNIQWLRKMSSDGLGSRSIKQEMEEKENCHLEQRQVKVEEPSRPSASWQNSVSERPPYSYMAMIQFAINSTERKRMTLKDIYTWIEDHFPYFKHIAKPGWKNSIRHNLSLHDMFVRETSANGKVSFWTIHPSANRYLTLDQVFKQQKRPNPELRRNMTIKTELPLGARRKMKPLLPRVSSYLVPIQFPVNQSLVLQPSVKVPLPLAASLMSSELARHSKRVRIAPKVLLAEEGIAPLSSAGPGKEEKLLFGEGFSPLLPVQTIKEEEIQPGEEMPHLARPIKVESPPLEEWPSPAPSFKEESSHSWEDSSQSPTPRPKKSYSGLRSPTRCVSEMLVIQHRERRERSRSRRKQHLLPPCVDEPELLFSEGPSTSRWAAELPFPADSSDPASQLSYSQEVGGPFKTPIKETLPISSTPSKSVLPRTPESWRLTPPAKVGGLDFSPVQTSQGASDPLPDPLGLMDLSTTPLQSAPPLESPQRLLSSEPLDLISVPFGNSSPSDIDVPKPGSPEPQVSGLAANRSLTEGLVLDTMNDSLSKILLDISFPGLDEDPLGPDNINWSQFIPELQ
Kind of data set: FOXM1 protein levels and nuclear translocation (nuclear cytoplasmic fractionation, Western blot, ICC). As to conditions: for FOXM1 overexpression decreased by: TST-treated cells; for restoration of FOXM1 levels by overexpression of FOXM1 in treated cells: compared to mock transfection. The data set is classed as cell-based. The method, then: To confirm protein subcellular localization, lysis of H1299 and PC9 cell pellets was performed in Buffer A (10 mM HEPES, 10 mM KCl, 1.5 mM MgCl2, 0.5 mM dithiothreitol (DTT), and 0.05% IGEPAL CA-630 (pH 7.9)) for 10 minutes. The Buffer A lysate was centrifuged at 1,000×g for 10 minutes at 4° C. to collect the nuclear fraction. After removal of the cytosolic fraction, buffer B containing 5 mM HEPES, 0.2 mM EDTA, 1.5 mM MgCl2, 0.5 mM DTT, and 26% glycerol (v/v) (pH 7.9) was added to the nuclear fraction and lysed on ice for 30 minutes.
Cells were lysed in RIPA buffer supplemented with complete mini protease inhibitor cocktail (#04693124001; Roche, Basel, Switzerland) and kept on ice for 30 minutes. Equal amounts of protein were evenly loaded and analyzed by sodium dodecyl sulfate-polyacrylamide gel electrophoresis (SDS-PAGE), and transferred to polyvinylidene difluoride (PVDF) membranes (#IPVH 00010; Millipore, Billerica, MA, USA) at 100 V for 1 hour. Primary antibodies (Santa Cruz Biotechnology, Texas, USA) specific for FOXM1 (#sc-271746), cyclin E1 (#sc-481), α-tubulin (#sc-8035), and β-actin (#sc-47778); PD-L1 (#13684S), cyclin D1 (#2978S), cyclin B1 (#4138S), c-MYC (#5605S), and poly(ADP-ribose) polymerase (PARP, #9542S; Cell Signaling Technology, Beverly, MA, USA) were used to probe proteins of interest. A horseradish-peroxidase-conjugated secondary antibodies specific to the primary antibody was used to detect proteins using pico-enhanced chemiluminescence substrate (#34577; Thermo Fisher Scientific).
Cells were fixed in 4% paraformaldehyde (#30525-89-4; FUJIFILM Wako Chemical, Wako, Japan) for 15 minutes and blocked with 1% bovine serum albumin (BSA) in phosphate-buffered saline-0.01% Tween-20 (PBS-T) to reduce nonspecific antibody binding. Cells were then incubated overnight with an anti-PD-L1 antibody (#14598382; eBioscience, San Diego, CA, USA) diluted 1:200 and an anti-FOXM1 antibody (#sc-271746; Santa Cruz Biotechnology) diluted 1:50, followed by incubation with an Alexa Fluor 488-labeled secondary antibody (#A11029; Thermo Fisher Scientific) for 1 hour. Nuclei were stained with Hoechst 33342. After incubation, cells were washed with PBS and mounted on glass slides using Prolong Glass Antifade mounting medium (#P36982; Thermo Fisher Scientific). Confocal microscopy was performed using a Zeiss 730 Meta microscope (Carl Zeiss, Oberkochen, Germany) and analyzed using Axiovision software (Carl Zeiss).

The conditions of data set [1]: cited from earlier work.
Another data set relates to H1299 and PC9 cells. Kind of data set: Cell cycle distribution analysis (PI staining, flow cytometry). The data set is classed as cell-based, human. The method, then: Both H1299 and PC9 cells were enzymatically dissociated using TrypLE (#12605-010; Thermo Fisher Scientific), collected by centrifugation at 2,000×g for 2 minutes, resuspended in PBS, fixed in 70% ethanol, and stored overnight at 4° C. Fixed cells were pelleted, washed twice with PBS, resuspended in FxCycle propidium iodide (PI)/RNase staining solution (#F10797; Thermo Fisher Scientific), and incubated in the dark at 37° C. for 30 minutes. Flow cytometry was performed using a FACS-LSR Fortessa flow cytometer (BD Biosciences, Santa Clara, CA, USA).

The next data set has as its system CD274 promoter. In words: Dual-luciferase assay with CD274 promoter-luciferase construct. The data set is classed as cell-based, human. The note with it: TST in the presence of IFNγ. An excerpt: The pGL3 plasmid containing a 2 kb promoter of CD274 (#107003; Addgene, Watertown, MA, USA) was kindly provided by Julian Downward lab (Coelho M A, de Carne Trecesson S, Rana S, Zecchin D, Moore C, Molina-Arcas M, East P, Spencer-Dene B, Nye E, Barnouin K, Snijders A P, Lai W S, Blackshear P J, Downward J, Immunity 2017, 47, 1083.). H1299 and PC9 cells were co-transfected with a pGL3 2 kb promoter. Cells containing CD274 or control pGL3-basic plasmid and pGL4.70 hRluc Renilla luciferase vector (Promega, Madison, WI, USA) were transfected with siFOXM1 or treated with TST in the presence of interferon-gamma (IFNγ). Cells were harvested 48 hours after transfection, and a dual luciferase assay was performed to the according manufacturer's protocol (#E1910; Promega). At least four independent biological replicates were examined to obtain reliable results.

Setting [2] is: vs NC siRNA or DMSO-treated group, time-dependent.

As for thiostrepton [TST], on FOXM1 (H1299), the “FOXM1 overexpression decreased by” value is on record as 63.7% and the “restoration of FOXM1 levels by overexpression of FOXM1 in treated cells” value was 84.33%. Further, at FOXM1 (H1299 and PC9, TST 5 μM in the presence of IFN-γ 20 ng mL-1, or siFOXM1), the “protein levels and nuclear translocation of FOXM1” value is “decreased the protein levels and nuclear translocation of FOXM1”. For the same substance, on FOXM1 (PC9), the “FOXM1 overexpression decreased by” value was determined as 44% and the “restoration of FOXM1 levels by overexpression of FOXM1 in treated cells” value is on record as 57.56%. Also, the solubility in water entry in data set [1] is “low solubility in water”. Moreover, the G2 population result in the data set on H1299 and PC9 cells (both cell lines, vs DMSO-treated group) is “an increase in the G2 population”. In addition, in the data set on H1299 and PC9 cells (setting [2]), the S phase population entry is listed as “decreased a S phase population” and the sub-G0/G1 population entry was “increased the sub-G0/G1 population”. Also, the “decrease in relative luciferase activity (CD274 promoter activity)” value in the data set on CD274 promoter (H1299) came to 53%. Also, in the data set on CD274 promoter (PC9), the “decrease in relative luciferase activity (CD274 promoter activity)” value is reported as 66%.
